Converted amounts (≈) assume the structure as drawn.
Legend:
[1] = system: Aspergillus fumigatus; test: Antifungal activity against Aspergillus fumigatus HIC 6094 after 48 to 72 hrs; assay type: functional
[2] = system: Candida albicans; test: Antifungal activity against Candida albicans ATCC 10231 after 48 to 72 hrs; assay type: functional
[3] = system: Trichophyton mentagrophytes; test: Antifungal activity against Trichophyton mentagrophytes IFO 40996 after 48 to 72 hrs; assay type: functional
[4] = system: Proteus vulgaris; test: Antibacterial activity against Proteus vulgaris ATCC 3851 after 24 hrs; assay type: functional; conditions: ATCC 3851, 24 h
[5] = system: Escherichia coli; test: Antibacterial activity against Escherichia coli ATCC 25922 after 24 hrs; assay type: functional; conditions: ATCC 25922, 24 h
[6] = system: Staphylococcus aureus; test: Antibacterial activity against Staphylococcus aureus ATCC 6538p after 24 hrs; assay type: functional
[7] = system: Micrococcus luteus; test: Antibacterial activity against Micrococcus luteus […] after 24 hrs; assay type: functional
[8] = system: Bacillus subtilis; test: Antibacterial activity against Bacillus subtilis ATCC 6633 after 24 hrs; assay type: functional; conditions: ATCC 6633, 24 h
[9] = system: Salmonella typhimurium; test: Antibacterial activity against Salmonella Typhimurium ATCC 14028 after 24 hrs; assay type: functional, Salmonella enterica subsp. enterica serovar Typhimurium; conditions: Salmonella enterica, ATCC 14028, 24 h
[10] = system: Trichophyton rubrum; test: Antifungal activity against Trichophyton rubrum IFO 9185 after 48 to 72 hrs; assay type: functional

MIC [1] | MIC [2] | MIC [3] | MIC [4] | MIC [5] | MIC [6] | MIC [7] | MIC [8] | MIC [9] | MIC [10] | SMILES
> 100 µg/mL | > 100 µg/mL | > 100 µg/mL | 1.56 µg/mL (≈ 3.02 µM) | > 100 µg/mL | 1.56 µg/mL (≈ 3.02 µM) | 1.56 µg/mL (≈ 3.02 µM) | 1.56 µg/mL (≈ 3.02 µM) | 3.12 µg/mL (≈ 6.05 µM) | > 100 µg/mL | Oc1c(Br)cc(Br)cc1Cc1cc(Br)cc(Br)c1O
12.5 µg/mL (≈ 22.8 µM) | 25 µg/mL (≈ 45.6 µM) | 1.56 µg/mL (≈ 2.85 µM) | 25 µg/mL (≈ 45.6 µM) | 50 µg/mL (≈ 91.3 µM) | 25 µg/mL (≈ 45.6 µM) | 25 µg/mL (≈ 45.6 µM) | 25 µg/mL (≈ 45.6 µM) | 25 µg/mL (≈ 45.6 µM) | 12.5 µg/mL (≈ 22.8 µM) | Oc1cc(Cc2cc(O)c(O)c(Br)c2Br)c(Br)c(Br)c1O
> 100 µg/mL | 100 µg/mL (≈ 296 µM) | 12.5 µg/mL (≈ 37 µM) | 0.78 µg/mL (≈ 2.31 µM) | > 100 µg/mL | 0.78 µg/mL (≈ 2.31 µM) | 0.78 µg/mL (≈ 2.31 µM) | 1.56 µg/mL (≈ 4.62 µM) | 3.12 µg/mL (≈ 9.23 µM) | > 100 µg/mL | Oc1c(Cl)cc(Cl)cc1Cc1cc(Cl)cc(Cl)c1O
> 100 µg/mL | 100 µg/mL (≈ 298 µM) | 25 µg/mL (≈ 74.5 µM) | 25 µg/mL (≈ 74.5 µM) | 100 µg/mL (≈ 298 µM) | 12.5 µg/mL (≈ 37.3 µM) | 12.5 µg/mL (≈ 37.3 µM) | 25 µg/mL (≈ 74.5 µM) | 25 µg/mL (≈ 74.5 µM) | > 100 µg/mL | Oc1cc(Cl)c(Cc2cc(O)c(O)c(Cl)c2Cl)cc1O
50 µg/mL (≈ 135 µM) | 50 µg/mL (≈ 135 µM) | 3.12 µg/mL (≈ 8.43 µM) | 25 µg/mL (≈ 67.6 µM) | 50 µg/mL (≈ 135 µM) | 25 µg/mL (≈ 67.6 µM) | 25 µg/mL (≈ 67.6 µM) | 25 µg/mL (≈ 67.6 µM) | 25 µg/mL (≈ 67.6 µM) | 50 µg/mL (≈ 135 µM) | Oc1cc(Cc2cc(O)c(O)c(Cl)c2Cl)c(Cl)c(Cl)c1O
50 µg/mL (≈ 213 µM) | 50 µg/mL (≈ 213 µM) | 6.25 µg/mL (≈ 26.6 µM) | 25 µg/mL (≈ 107 µM) | 50 µg/mL (≈ 213 µM) | 25 µg/mL (≈ 107 µM) | 25 µg/mL (≈ 107 µM) | 25 µg/mL (≈ 107 µM) | 25 µg/mL (≈ 107 µM) | 50 µg/mL (≈ 213 µM) | Oc1ccccc1Cc1cc(Cl)ccc1O
> 100 µg/mL | > 100 µg/mL | 50 µg/mL (≈ 128 µM) | 25 µg/mL (≈ 64.1 µM) | > 100 µg/mL | 25 µg/mL (≈ 64.1 µM) | 12.5 µg/mL (≈ 32 µM) | 25 µg/mL (≈ 64.1 µM) | 25 µg/mL (≈ 64.1 µM) | > 100 µg/mL | Oc1cc(Br)c(Cc2cc(O)c(O)cc2Br)cc1O
3.12 µg/mL (≈ 4.98 µM) | 6.25 µg/mL (≈ 9.97 µM) | 1.56 µg/mL (≈ 2.49 µM) | 12.5 µg/mL (≈ 19.9 µM) | 50 µg/mL (≈ 79.8 µM) | 25 µg/mL (≈ 39.9 µM) | 25 µg/mL (≈ 39.9 µM) | 25 µg/mL (≈ 39.9 µM) | 25 µg/mL (≈ 39.9 µM) | 1.56 µg/mL (≈ 2.49 µM) | Oc1cc(Cc2c(Br)c(O)c(O)c(Br)c2Br)c(Br)c(Br)c1O
> 100 µg/mL | > 100 µg/mL | > 100 µg/mL | > 100 µg/mL | > 100 µg/mL | > 100 µg/mL | 100 µg/mL (≈ 375 µM) | > 100 µg/mL | > 100 µg/mL | > 100 µg/mL | Oc1ccc(Cc2cc(O)c(O)cc2Cl)cc1O
> 100 µg/mL | > 100 µg/mL | 50 µg/mL (≈ 166 µM) | 50 µg/mL (≈ 166 µM) | > 100 µg/mL | 50 µg/mL (≈ 166 µM) | 25 µg/mL (≈ 83 µM) | 50 µg/mL (≈ 166 µM) | 50 µg/mL (≈ 166 µM) | > 100 µg/mL | Oc1cc(Cl)c(Cc2cc(O)c(O)cc2Cl)cc1O
100 µg/mL (≈ 426 µM) | 50 µg/mL (≈ 213 µM) | 12.5 µg/mL (≈ 53.3 µM) | 100 µg/mL (≈ 426 µM) | 100 µg/mL (≈ 426 µM) | 50 µg/mL (≈ 213 µM) | 50 µg/mL (≈ 213 µM) | 100 µg/mL (≈ 426 µM) | 100 µg/mL (≈ 426 µM) | 100 µg/mL (≈ 426 µM) | Oc1ccccc1Cc1cccc(Cl)c1O
> 100 µg/mL | > 100 µg/mL | > 100 µg/mL | > 100 µg/mL | > 100 µg/mL | > 100 µg/mL | 100 µg/mL (≈ 321 µM) | > 100 µg/mL | > 100 µg/mL | > 100 µg/mL | Oc1ccc(Cc2cc(O)c(O)cc2Br)cc1O
> 100 µg/mL | > 100 µg/mL | > 100 µg/mL | > 100 µg/mL | > 100 µg/mL | > 100 µg/mL | > 100 µg/mL | > 100 µg/mL | > 100 µg/mL | > 100 µg/mL | Brc1cc2c(cc1Cc1cc3c(cc1Br)OCO3)OCO2

SMILES | MIC [1] | MIC [2] | MIC [3] | MIC [4] | MIC [5] | MIC [6] | MIC [7] | MIC [8] | MIC [9] | MIC [10]
C[C@@H]1[C@H](O)[C@@H](C)/C=C/C=C/C=C/C=C/C=C/C=C/C=C/[C@H](O[C@@H]2O[C@H](C)[C@@H](O)[C@H](N)[C@@H]2O)C[C@@H]2O[C@](O)(C[C@@H](O)C[C@@H](O)[C@H](O)CC[C@@H](O)C[C@@H](O)CC(=O)O[C@H]1C)C[C@H](O)[C@H]2C(=O)O [AMPHOTERICIN B] | 3.12 µg/mL (≈ 3.38 µM) | 6.25 µg/mL (≈ 6.76 µM) | 3.12 µg/mL (≈ 3.38 µM) | – | – | – | – | – | – | 3.12 µg/mL (≈ 3.38 µM)
CC1(C)S[C@@H]2[C@H](NC(=O)[C@H](N)c3ccccc3)C(=O)N2[C@H]1C(=O)O [AMPICILLIN] | – | – | – | 3.12 µg/mL (≈ 8.93 µM) | 12.5 µg/mL (≈ 35.8 µM) | 1.56 µg/mL (≈ 4.46 µM) | 1.56 µg/mL (≈ 4.46 µM) | 1.56 µg/mL (≈ 4.46 µM) | 3.12 µg/mL (≈ 8.93 µM) | –
Oc1ccc(Cl)cc1Cc1cc(Cl)ccc1O [DICHLOROPHEN] | 50 µg/mL (≈ 186 µM) | 25 µg/mL (≈ 92.9 µM) | 12.5 µg/mL (≈ 46.4 µM) | 12.5 µg/mL (≈ 46.4 µM) | 100 µg/mL (≈ 372 µM) | 12.5 µg/mL (≈ 46.4 µM) | 12.5 µg/mL (≈ 46.4 µM) | 12.5 µg/mL (≈ 46.4 µM) | 6.25 µg/mL (≈ 23.2 µM) | 50 µg/mL (≈ 186 µM)

From ChEMBL document CHEMBL1143276, “Synthesis and antimicrobial activities of halogenated bis(hydroxyphenyl)methanes” (2009)
